Usually IC50 stands for the point on the concentration scale where inhibition reaches its midpoint.

Consider 20 molecules from US9102669B2, “Substituted piperidinyl-pyridazinyl derivatives useful as SCD 1 inhibitors” (Janssen Pharmaceutica NV, priority 2011, dated 2015).

Each structure is given as a SMILES string. Several values for one entry are separate records, joined by “and”; a condition that tells them apart may be missing. Equal entries are not always repeated. Where two headings read alike, the source gives them in different places. Bounds are passed on as bounds.

Test [1] concerns the target SCD1 (Rattus norvegicus (Rat), UniProt P07308). Kind of test: SCD1 enzymatic assay in rat liver microsomes (RLM). Type of test: biochemical. The note with it: for inhibition at 1 µM: read-out: % Inh.@ 1 μM. The method in brief: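 Microsomes from livers of Sprague Dawley rats after fast/fat-free re-feeding cycles (10 μg per reaction) were incubated 2 h at room temperature with 20 μM stearoyl-CoA plus ^3H-stearoyl-CoA (2 μCi/mL), ATP, CoA, NADH and glutathione in 0.1 M K-phosphate, with compound. Reactions were acid-stopped and charcoal-treated; radioactivity was counted and fitted to a sigmoidal dose-response curve.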
(Liver microsomes are vesicles of endoplasmic reticulum, rich in cytochrome P450 enzymes.)

The target in test [2] is T1, SCD1 (Homo sapiens (Human), UniProt O00767). Description: SCD1 14C-palmitate assay in A431 cells. The format is cell-based. The note with it: read-out: A431 cells 14C-PA IC50. The protocol: Human epithelial carcinoma A431 cells were seeded at 400,000 cells per well in 48-well tissue culture plate and treated with 2 cycles of fasting in low glucose medium (DMEM, Cellgro#10-014-CV, 1 g/L glucose, 2% Charcoal Filtered FBS) for 24 hours; and re-feeding with high glucose medium for 24 hours (DMEM, Cellgro#10-013-CM, 4.5 g/L glucose, 10% Charcoal Filtered FBS and 0.05 mg/mL Lilly Humulin R, Cat.#, HI-210). Prior to running the assay, the cells were washed twice with high glucose medium (400 μL), followed by addition of 250 μL assay buffer (DMEM, 4.5 g/L glucose, 0.05 mg/mL Human Insulin, 0.1% Fatty Acid Free BSA) to each well. Then, 100 μL of assay buffer containing 20 μM Palmitic Acid, 0.05 μCi ^14C Palmitic Acid (Perkin Elmer, NEC075H) and test compound (at selected concentration) was added to each well. The cells were then Incubated at 37° C. and 5% CO2 tissue culture incubator for 4 hours, followed by extensive washes with pre-chilled PBS. The cell plates were then frozen at −20° C. overnight. After thawing out the plates, 100 μL of 1N KOH was added to each well and the plates were incubated at 37° C. for 30 mins. Cell lysates were transferred to 1 mL Eppendorf tubes and incubated at 95° C. for 1 hour, followed by addition of 10 μL formic acid and 220 μL acetonitrile. The tubes were then centrifuged at 12,000 rpm and the supernatant dried under N2 for 2-3 hours. Dried extract was re-suspended in 60 μL hexane and loaded onto TLC plates (pre-coated with 10% AgNO3 in acetonitrile). The TLC plates were placed into glass running chamber containing 200 mL running solution (100 mL running solution: 92.5 mL chloroform, 6 mL methanol, 750 μL acetic acid, 750 μL dH2O). After running, the TLC plates were air dried and scanned on Bioscan AR-2000 for quantification of ^14C-palmitioleate and ^14C-palmitate peaks. Area under the curve of the peaks were used to calculate product/substrate ratio, an index of SCD1 activity.

For test [3], the target named is T1, SCD1. Kind of test: SCD1 13C-palmitic acid assay in A431 cells. Type of test: cell-based. Particulars: read-out: A431 cells 13C-PA IC50. The method, boiled down: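 A431 cells with 0.05 mg/mL human insulin in 0.1% fatty-acid-free BSA assay medium; 4 h incubation at 37 °C before KOH saponification with D4-palmitate internal standard.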
Test [4] in a line: 10-day diet-induced obese C57bl/6 mice study, body weight change. The format is in vivo, mouse. More on the design: unit not given here. The note with it: DIO C57BL/6J mice, oral 30 mg/kg once a day, after 10 days of treatment. The protocol: Male DIO C57BL/6J mice from Taconic were maintained on high fat diet D12492 containing 60% kCal of mostly saturated fats (Research Diets Inc.) for 4 week from 6-week old. Test compounds were prepared in 0.5% hydroxypropyl methyl cellulose for oral dosing at 30 mg/kg once a day. After 10-days of treatment, body weight change was recorded.
Representative compounds of the present invention were tested according to the procedure as described above, with results as listed in Table 7, below. In the results presented below, * indicates a calculated p value <0.05 vs. vehicle-treated group.

The mark [5] stands for this setting: 1 μM test compound, rat liver microsomes.

SCD1 (Rattus norvegicus (Rat), UniProt P07308), sequence (P07308 whole entry): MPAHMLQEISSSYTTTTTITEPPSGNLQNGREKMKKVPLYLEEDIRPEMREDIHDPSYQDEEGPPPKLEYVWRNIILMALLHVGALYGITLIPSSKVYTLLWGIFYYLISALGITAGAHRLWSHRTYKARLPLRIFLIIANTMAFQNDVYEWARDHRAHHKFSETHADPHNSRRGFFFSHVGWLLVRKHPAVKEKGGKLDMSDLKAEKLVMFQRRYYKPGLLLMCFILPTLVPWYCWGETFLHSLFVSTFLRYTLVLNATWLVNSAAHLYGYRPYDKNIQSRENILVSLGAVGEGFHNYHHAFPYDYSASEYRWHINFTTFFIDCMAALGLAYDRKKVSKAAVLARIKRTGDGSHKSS
T1 sequence (O00767 whole entry): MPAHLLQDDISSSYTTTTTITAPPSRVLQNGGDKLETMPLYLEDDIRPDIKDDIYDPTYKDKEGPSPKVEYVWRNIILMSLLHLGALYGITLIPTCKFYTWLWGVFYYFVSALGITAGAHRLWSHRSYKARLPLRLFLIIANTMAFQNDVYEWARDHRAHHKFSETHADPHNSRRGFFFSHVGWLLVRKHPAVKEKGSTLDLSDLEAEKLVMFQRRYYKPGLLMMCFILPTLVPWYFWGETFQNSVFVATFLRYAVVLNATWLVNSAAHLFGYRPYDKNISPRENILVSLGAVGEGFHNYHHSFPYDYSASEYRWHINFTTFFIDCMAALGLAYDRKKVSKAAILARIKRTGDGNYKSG

Turning to `Cc1cn(-c2ccc(N3CCC(N4CCc5ccccc54)CC3)nn2)cn1` [Compound #1, 1-(1-(6-(4-methyl-1H-imidazol-1-yl)pyridazin-3-yl)piperidin-4-yl)indoline], the inhibition at 1 µM in test [1] (setting [5]) is 86%. Further, the half-maximal inhibitory concentration (IC50) in test [1] (rat liver microsomes) is 0.076 µM; in test [2], 0.257 µM.
Consider `Cn1cc(-c2ccc(N3CCC(c4noc5ccc(F)cc45)CC3)nn2)cn1` [Compound #3, 5-fluoro-3-(1-(6-(1-methyl-1 H-pyrazol-4-yl)pyridazin-3-yl)piperidin-4-yl)benzo[d]isoxazole], for which, in test [1] (setting [5]), the inhibition at 1 µM came out at 87%. For the same molecule, the IC50 in test [1] (rat liver microsomes) stood at 0.126 µM; in test [2], 0.377 µM.
Consider `Cc1cn(-c2ccc(N3CCC(N4CCc5ccc(F)cc54)CC3)nn2)cn1` [Compound #4, 6-fluoro-1-(1-(6-(4-methyl-1H-imidazol-1-yl)pyridazin-3-yl)piperidin-4-yl)indoline], for which the IC50 in test [3] is 0.009 µM; in test [2], 0.068 µM. The “% Inh.@ 1 μM” value in test [1] (setting [5]) came out at 93%. For the same molecule, the inhibition at 1 µM in test [1] (setting [5]) stood at 95%.
Consider `Cc1nsc(-c2ccc(N3CCC(c4noc5ccc(F)cc45)CC3)nn2)n1` [Compound #5, 5-fluoro-3-(1-(6-(3-methyl-1,2,4-thiadiazol-5-yl)pyridazin-3-yl)piperidin-4-yl)benzo[d]isoxazole], for which the inhibition at 1 µM in test [1] (setting [5]) was 89%. Further, the half-maximal inhibitory concentration (IC50) in test [1] (rat liver microsomes) was 0.068 µM; in test [2] it was 0.139 µM.
Take `Cc1nsc(-c2ccc(N3CCC(n4ccc5ccccc54)CC3)nn2)n1` [Compound #6, 5-(6-(4-(1H-indol-1-yl)piperidin-1-yl)pyridazin-3-yl)-3-methyl-1,2,4-thiadiazole]: the inhibition at 1 µM in test [1] (setting [5]) is 79%. Besides, the IC50 in test [1] (rat liver microsomes) was 0.034 µM; in test [2], 0.062 µM and 0.102 µM.
As to `Cc1nsc(-c2ccc(N3CCC(N4CCc5ccccc54)CC3)nn2)n1` [Compound #7, 5-(6-(4-(indolin-1-yl)piperidin-1-yl)pyridazin-3-yl)-3-methyl-1,2,4-thiadiazole], the inhibition at 1 µM in test [1] (setting [5]) was determined as 95%. Moreover, the figures for the IC50 in test [1] (rat liver microsomes) and in test [2] were 0.014 µM and 0.024 µM, respectively.
The like results for `Cn1cc(-c2ccc(N3CCC(n4ccc5ccccc54)CC3)nn2)cn1` [Compound #9, 1-(1-(6-(1-methyl-1H-pyrazol-4-yl)pyridazin-3-yl)piperidin-4-yl)-1H-indole] were, in that order, 81%, 0.422 µM and 0.359 µM.
In the case of `Cn1cc(-c2ccc(N3CCC(N4CCc5ccccc54)CC3)nn2)cn1` [Compound #10, 1-(1-(6-(1-methyl-1H-pyrazol-4-yl)pyridazin-3-yl)piperidin-4-yl)indoline], the inhibition at 1 µM in test [1] (setting [5]) was 84%. Moreover, the 50% inhibitory concentration (IC50) in test [1] (rat liver microsomes) came to 0.394 µM; in test [2], 0.383 µM.
`Cc1nsc(-c2ccc(N3CCC(N4CCc5ccc(F)cc54)CC3)nn2)n1` [Compound #12, 5-(6-(4-(6-fluoroindolin-1-yl)piperidin-1-yl)pyridazin-3-yl)-3-methyl-1,2,4-thiadiazole]: in test [1] (setting [5]), the “% Inh.@ 1 μM” value is recorded as 97% and the inhibition at 1 µM is 95%. For the same molecule, 0.011 µM corresponded to half-maximal inhibition in test [1] (rat liver microsomes) (IC50). Further, in test [2], the half-maximal inhibitory concentration (IC50) is 0.362 µM.
With `OCc1cnn(-c2ccc(N3CCC(N4CCc5ccc(F)cc54)CC3)nn2)c1` [Compound #22], the IC50 in test [3] was 0.007 µM and 0.005 µM; in test [1] (rat liver microsomes), 0.022 µM and 0.011 µM. Further, in test [1], the inhibition at 1 µM came to 98%. In test [4], the body weight change was 1.2 ± 0.3 *.
For `OCc1ccc(-c2ccc(N3CCC(N4CCc5ccc(F)cc54)CC3)nn2)cn1` [Compound #39], the 50% inhibitory concentration (IC50) in test [3] was determined as 0.0005 µM; in test [1] (rat liver microsomes), 0.009 µM. For the same molecule, the inhibition at 1 µM in test [1] (setting [5]) came out at 99%. In addition, in test [4], the body weight change was −2.2 ± 0.5 *.
Consider `Cn1cc(-c2ccc(N3CCC(n4ncc5ccc(F)cc54)CC3)nn2)cn1` [Compound #47, 6-fluoro-1-(1-(6-(1-methyl-1H-pyrazol-4-yl)pyridazin-3-yl)piperidin-4-yl)-1H-indazole], for which the IC50 in test [3] is 0.069 µM and 0.033 µM. In addition, in test [4], the body weight change was −3.3 ± 0.5 *.
For `OCCn1cc(-c2ccc(N3CCC(N4CCc5ccc(F)cc54)CC3)nn2)cn1` [Compound #49, 2-(4-(6-(4-(6-fluoroindolin-1-yl)piperidin-1-yl)pyridazin-3-yl)-1H-pyrazol-1-yl)ethanol], the IC50 was 0.021 µM and 0.022 µM in test [3]; 0.025 µM and 0.019 µM in test [1] (rat liver microsomes). For the same molecule, the “% Inh.@ 1 μM” value in test [1] (setting [5]) was 91%. In test [1] (setting [5]), the inhibition at 1 µM was 95%. The body weight change in test [4] is on record as 0.5 ± 0.1 *.
Consider `NNC(=O)c1ccc(N2CCC(c3noc4ccc(F)cc34)CC2)nn1` [Compound I1, 6-(4-(5-fluorobenzo[d]isoxazol-3-yl)piperidin-1-yl)pyridazine-3-carbohydrazide], for which the IC50 in test [3] was more than 3 µM; in test [1] (rat liver microsomes), 0.059 µM; in test [2] it was 3.06 µM. In test [1] (setting [5]), the inhibition at 1 µM came to 100%.
Turning to `Fc1ccc2onc(C3CCN(c4ccc(-c5cccnc5)nn4)CC3)c2c1` [compound 8, 5-fluoro-3-(1-(6-(pyridin-3-yl)pyridazin-3-yl)piperidin-4-yl)benzo[d]isoxazote], the inhibition at 1 µM in test [1] (setting [5]) was determined as 86%. The results for the IC50 in test [1] (rat liver microsomes) and in test [2] were 0.165 µM and 0.577 µM, respectively.
In the case of `Fc1ccc2onc(C3CCN(c4ccc(-n5ccnc5)nn4)CC3)c2c1` [compound 84, 3-(1-(6-(1H-imidazol-1-yl)pyridazin-3-yl)piperidin-4-yl)-5-fluorobenzo[d]isoxazole], the inhibition at 1 µM in test [1] (setting [5]) was determined as 85%. In addition, the IC50 in test [1] (rat liver microsomes) worked out at 0.156 µM; in test [2], 0.157 µM.
Consider `Cc1cn(-c2ccc(N3CCC(c4noc5ccc(F)cc45)CC3)nn2)cn1` [compound 85, 5-fluoro-3-(1-(6-(4-methyl-1H-imidazol-1-yl)pyridazin-3-yl)piperidin-4-yl)benzo[d]isoxazole], for which the inhibition at 1 µM in test [1] (setting [5]) amounted to 97%. The IC50 in test [1] (rat liver microsomes) stood at 0.065 µM; in test [2], 0.148 µM.
As to `Cc1cn(-c2ccc(N3CCC(n4ccc5ccccc54)CC3)nn2)cn1` [compound 88, 1-(1-(6-(4-methyl-1H-imidazol-1-yl)pyridazin-3-yl)piperidin-4-yl)-1H-indole], the inhibition at 1 µM in test [1] (setting [5]) was 84%. Also, the IC50 is 0.086 µM in test [1] (rat liver microsomes) and 0.116 µM in test [2].
For `Cc1cn(-c2ccc(N3CCC(c4noc5cc(F)ccc45)CC3)nn2)cn1` [compound 89, 6-fluoro-3-(1-(6-(4-methyl-1H-imidazol-1-yl)pyridazin-3-yl)piperidin-4-yl)benzo[d]isoxazole], in test [1] (setting [5]), the inhibition at 1 µM turned out to be 88%. Further, the IC50 in test [1] (rat liver microsomes) came out at 0.257 µM; in test [2] it was 0.691 µM.
In the same order, the values of `Cc1ccn(-c2ccc(N3CCC(c4noc5ccc(F)cc45)CC3)nn2)n1` [compound 92, 5-fluoro-3-(1-(6-(3-methyl-1H-pyrazol-1-yl)pyridazin-3-yl)piperidin-4-yl)benzo[d]isoxazole] are 79%, 0.126 µM and 0.063 µM.
